Columns and labels:
Assay type in all cases: cell-based
[1] = tested on: AGS cells; test: VacA-disrupted autophagy in AGS cells (LC3-II immunoblot, LC3 puncta); settings: for VacA-disrupted autophagy (LC3-II levels): FIG. 13
Procedure: AGS cells incubated with VacA+ or VacA− CCMS for 3 to 4 hrs were then treated with 20 μM ML-SA1 or DMSO (vehicle) for an additional 3 hrs. Cell lysates were prepared and probed for the autophagy marker LC3-II and actin (loading control) (4A, left). Densitometry analysis (LC3-II/actin ratio) of 6 experiments is included on the right. […] Cells treated as indicated above were fixed and stained for LC3-11 (marker of autophagosomes) and cell nuclei (using DAPI). […] One representative image of 7 experiments is shown.
To validate the results obtained with ML-SA1 and confirm that VacA impairs TRPML1 activity, a new recently described TRPML1 agonist, MK6-83, was also evaluated in its ability to restore VacA-disrupted autophagy. To this end, AGS cells incubated with VacA+ or VacA− CCMS for 4 hours were treated with 20 μM ML-SA1, 10 μM MK6-83 or DMSO (vehicle) for additional 3 hour period. Cell lysates were prepared and assessed for LC3-II and actin as loading control. […] This example provides evidence that various TRPML1 agonists of different structures work in the same way by targeting TRPML1 to restore VacA-disrupted autophagy.

[2] = tested on: AGS cells; test: VacA-induced vacuolation in AGS cells (Lamp1 staining); settings: 20 μM for 3 hrs after 3 to 4 hrs VacA+ CCMS
Procedure: AGS cells were incubated with CCMS from wild-type (VacA+) or mutant (VacA−) 60190 H. pylori for 3 to 4 hrs to induce vacuole formation. Cells were then treated with 20 μM of the TRPML1 agonist ML-SA1 or DMSO (vehicle) for an additional 3 hrs period prior to fixation and staining for Lamp1 and cell nuclei. […] Lamp1 staining in these TRPML1 treated cells was indistinguishable from VacA− CCMS control AGS cells. The experiment was repeated 8 times with similar results. One representative experiment is shown.
ML-SA1-treated VacA^+ AGS cells were indistinguishable from VacA^− control cells, displaying Lamp1 staining that resembled normal lysosome size and distribution.

[3] = tested on: AGS cells; test: VacA-induced missorting of cathepsin D in AGS cells (Lamp1/cathepsin D staining); settings: 20 μM for 4 hrs after overnight VacA+ CCMS
Procedure: VacA− DMSO treated (control) cells display lysosomes filled with cathepsin D (same puncta obtained by Lamp1 and cathepsin D staining in the top 2 panels) whereas the big vacuoles generated by VacA+ incubation lack cathepsin D (middle panels). […] A higher magnification of a merged Lamp1/cathepsin D image is included on the right. One representative image of 6 experiments is shown.
(§1) ML-SA1 administration to VacA^+ treated AGS cells recovered the delivery of cathepsin D to intracellular vacuoles (FIG. 5) and increased cathepsin D cellular levels as detected by immunoblotting (FIG. 6). Importantly, ML-SA1-treated cells also regained the ability to degrade the chromogenic substrate, DQ-BSA (FIG. 7). Altogether, these findings indicate that activation of the TRPML1 channel reverts formation of the VacA-induced non-degradative vacuole.

[4] = tested on: AGS cells; test: Cathepsin D cellular levels in VacA+ CCMS treated AGS cells (Western blotting); settings: 20 μM for 4 hrs after overnight VacA+ CCMS
Procedure: AGS cells were incubated overnight with VacA− or VacA+ CCMS and treated with 20 μM ML-SA1 or DMSO (vehicle) for an additional 4 hrs period prior to lysate preparation. Cathepsin D and actin (loading control) levels were analyzed by Western blotting. […] One representative blot of 5 is shown (top panel). Densitometry analysis of cathepsin D levels (cathepsin D/actin ratio), normalized to the VacA− treated control is shown (bottom panel).
as §1

[5] = tested on: AGS cells; test: Lysosomal degradative function in VacA+ CCMS treated AGS cells (red DQ-BSA); settings: 20 μM for 3 hrs after overnight VacA+ CCMS, then red DQ-BSA 4 hrs
Procedure: AGS cells were incubated overnight with VacA− or VacA+ CCMS and treated with 20 μM ML-SA1 or DMSO (vehicle) for an additional 3 hrs period prior to being loaded with red DQ-BSA for an additional 4 hrs. Cells were then fixed and stained with DAPI. Red DQ-BSA is a chromogenic substrate taken up by the cells by endocytosis. The dye generates a fluorescence signal once hydrolyzed in lysosomes. VacA− treated control cells efficiently degrade the substrate resulting in the detection of the fluorescence signal (lysosomal-like white puncta in 7A) whereas in VacA+ treated cells minimal to none fluorescence is detected (7B). […] The experiment was repeated 4 times with similar results.
as §1

[6] = tested on: wild-type (VacA+) H. pylori; test: Intracellular bacteria survival in infected AGS cells (gentamicin, CFU)
[7] = tested on: AGS cells; test: Vacuolation and cathepsin D missorting in AGS cells infected with wild-type (VacA+) H. pylori; settings: treated for 4 hrs
Procedure: A merged image is shown on the left, and the individual stainings corresponding to a higher magnification of the selected areas are included on the right. In the AGS cells infected with VacA− H. pylori mutant, the cathepsin D-filled lysosomes efficiently killed the intracellular bacteria (visualized by DAPI).
To this end, AGS cells infected with wild-type (VacA^+) or VacA^− mutant H. pylori were incubated with the cell-impermeant antibiotic gentamicin to kill extracellular bacteria. Intracellular bacteria were then retrieved and quantified. […] The big vacuoles, depleted of cathepsin D and filled with bacteria observed in the VacA^+ H. pylori infected cells (FIG. 9, inset), were reduced in size and filled with the hydrolytic enzyme after ML-SA1 treatment (FIG. 9, inset). Thus, the reduction in intracellular survival was a consequence of the destruction of the […] H. pylori protective niche (FIG. 8,9).

[8] = tested on: human gastric organoids; test: VacA-induced large vacuoles and disrupted autophagy in human gastric organoids; settings: 16 h VacA+ culture supernatant
Procedure: (11A) 3-dimensional human gastric organoids were treated 16 h with VacA− or VacA+ culture supernatant, then 5 h with vehicle (DMSO) or ML-SA1. One representative Western blot is shown and the corresponding quantification of the rescue in LC3-II by treatment with ML-SA1 from organoids derived from 5 different patients. (B) Representative confocal images taken from human gastric organoid monolayers treated for 16 h with VacA− or VacA+ culture supernatant, then 3 h with vehicle (DMSO) or ML-SA1. VacA-induced large vacuoles were visualized by Lamp1, autophagy by LC3 and nuclei by DAPI. Note large Lamp1 positive rings and LC3 puncta (arrows) in VacA+ DMSO that were rescued in VacA+ ML-SA1.
Organoids are 3-dimensional primary cell cultures that recapitulate the normal stomach physiology. These cultures are derived from stem cells located in the gastric gland that differentiate into complex structures containing the different cell types found in the stomach epithelium. To ensure findings from the cancerous gastric cell line (AGS) held true in a physiological model, organoids were derived from multiple different patients and treated with VacA.

Structure (SMILES)	VacA-disrupted autophagy (LC3-II levels) ([1]; 10 μM for 3 hour after 4 hours VacA+ CCMS, AGS cells)	VacA-induced vacuolation (Lamp1 staining) [2]	VacA-disrupted autophagy (LC3-II levels) ([1]; 20 μM for 3 hour after 4 hours VacA+ CCMS, AGS cells)	autophagy marker LC3-II (LC3-II/actin ratio) ([1]; 20 μM for 3 hrs after 3 to 4 hrs VacA+ CCMS, AGS cell lysates, FIG. 4A)	accumulation of dysfunctional autophagosomes (LC3 puncta) ([1]; 20 μM for 3 hrs after VacA+ CCMS, AGS cells, staining, FIG. 4B)	cathepsin D sorting to lysosomes [3]	cathepsin D cellular levels (cathepsin D/actin ratio) [4]	lysosomal degradative function (degradation of DQ-BSA) [5]	intracellular survival of wild-type (VacA+) H. pylori (CFU) ([6]; 8 hrs infection, 20 μM for the last 3 hrs)	intracellular survival of wild-type (VacA+) H. pylori (CFU) ([6]; 24 hrs infection, 20 μM for the last 4 hrs)	size of the vacuoles in VacA+ H. pylori infected cells ([7]; Lamp1 staining)	cathepsin D in the vacuoles of VacA+ H. pylori infected cells ([7]; cathepsin D staining)	VacA-induced large intracellular vacuoles (Lamp1) ([8]; then 3 h compound, human gastric organoid monolayers)	disrupted autophagy (LC3) ([8]; then 5 h (3-dimensional organoids, LC3-II blot) or 3 h (monolayers) compound)
Cc1ccc(S(=O)(=O)Nc2ccccc2N2CCCCC2)s1 [MK6-83]	restored the VacA-disrupted autophagy	–	–	–	–	–	–	–	–	–	–	–	–	–
CC1CC(C)(C)N(C(=O)CN2C(=O)c3ccccc3C2=O)c2ccccc21 (centres unmarked) [ML-SA1]	–	reversed the vacuolation	restored the VacA-disrupted autophagy	autophagy was restored	reversed the accumulation of dysfunctional autophagosomes	restores cathepsin D sorting to lysosomes	restored cathepsin D levels	restores the degradative capacity	reverted the enhanced intracellular survival	reverted the enhanced intracellular survival	causes a reduction in the size of the vacuoles	now contain the lysosomal hydrolase cathepsin D	large vacuoles were reverted	autophagy was restored

Reference: patent US11191760B2, “Compositions and methods for treating Helicobacter pylori infection” (priority 2016, dated 2021)
